Experimental data as given in ChEMBL document CHEMBL4616634, “4β-Hydroxywithanolide E from Goldenberry (Whole Fruits of Physalis peruviana L.) as a Promising Agent against Chronic Obstructive Pulmonary Disease” (J Nat Prod, 2020).
Active and inactive are the calls of the source. The rule behind the calls is not given here.

How the values were obtained:
[1] = molecular target: T1, Nuclear factor erythroid 2-related factor 2 (Homo sapiens) (UniProt Q16236); experiment: Activation of Nrf2 in human MDA-MB-231 cells assessed as increase in Nrf2 protein level at 0.5 uM incubated for 16 hrs by immunoblot analysis; type: cell-based
T1 sequence (whole entry): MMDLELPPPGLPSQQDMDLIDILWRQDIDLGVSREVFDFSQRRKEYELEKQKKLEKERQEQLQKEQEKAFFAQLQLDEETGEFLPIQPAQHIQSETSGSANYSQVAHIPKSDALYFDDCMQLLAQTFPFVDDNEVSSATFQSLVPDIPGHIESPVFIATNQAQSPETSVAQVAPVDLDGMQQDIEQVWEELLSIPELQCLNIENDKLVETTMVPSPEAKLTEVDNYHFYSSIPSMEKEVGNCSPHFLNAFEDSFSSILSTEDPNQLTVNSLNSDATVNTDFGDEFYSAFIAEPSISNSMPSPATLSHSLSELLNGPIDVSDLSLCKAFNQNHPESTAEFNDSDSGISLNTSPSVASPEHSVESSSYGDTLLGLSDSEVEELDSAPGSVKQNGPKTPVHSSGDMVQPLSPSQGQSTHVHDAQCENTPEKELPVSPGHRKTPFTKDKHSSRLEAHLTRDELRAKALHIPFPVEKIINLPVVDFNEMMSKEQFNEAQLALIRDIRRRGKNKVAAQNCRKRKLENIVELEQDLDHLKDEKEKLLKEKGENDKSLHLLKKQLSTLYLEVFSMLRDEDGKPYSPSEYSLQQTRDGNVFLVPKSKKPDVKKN

Mus musculus [2] = experiment: Antiinflammatory activity in C57BL/6 mouse model of CS-induced pulmonary injury assessed as reduction in distinct infiltration of leukocytes in lungs at 2 to 4 mg/kg, ip for 5 days by hematoxylin and eosin staining based fluorescence microscopic analysis; type: functional, organism-based
Mus musculus [3] = experiment: Antiinflammatory activity in C57BL/6 mouse model of CS-induced pulmonary injury assessed as increase in Nrf2 protein expression in lungs at 2 to 4 mg/kg, ip for 5 days by immunoblot analysis; type: functional, organism-based
[4] = molecular target: T1, Nuclear factor erythroid 2-related factor 2 (Homo sapiens); experiment: Activation of Nrf2 in human BEAS2B cells assessed as increase in Nrf2 protein expression at 1 uM incubated for 8 hrs by immunoblot analysis; type: cell-based
RAW264.7 [5] = experiment: Inhibition of LPS-induced COX2 mRNA expression in mouse RAW264.7 cells at 0.5 to 4 uM preincubated for 1 hr followed by LPS-stimulation and measured after 6 hrs by qRT-PCR analysis; type: functional, cell-based
Mus musculus [6] = experiment: Antiinflammatory activity in C57BL/6 mouse model of CS-induced pulmonary injury assessed as reduction in goblet cell hyperplasia in peribronchial in lungs at 2 to 4 mg/kg, ip for 5 days by hematoxylin and eosin staining based fluorescence microscopic analysis; type: functional, organism-based
Mus musculus [7] = experiment: Antioxidant Activity in C57BL/6 mouse model of CS-induced pulmonary injury assessed as increase in SOD level in lungs at 2 to 4 mg/kg, ip for 5 days; type: functional, organism-based
RAW264.7 [8] = experiment: Inhibition of LPS-induced NFkappaB activation in mouse RAW264.7 cells pre-incubated for 1 hr followed by LPS-stimulation and measured after 16 hrs by dual luciferase reporter gene assay; type: cell-based
[9] = molecular target: T1, Nuclear factor erythroid 2-related factor 2 (Homo sapiens); experiment: Stabilization of Nrf2 in human BEAS2B cells assessed as protein half life at 1 uM after 8 hrs in presence of CHX by immunoblot analysis (reference value: 12.9 min); type: cell-based
[10] = molecular target: T1, Nuclear factor erythroid 2-related factor 2 (Homo sapiens); experiment: Activation of Nrf2 in human MDA-MB-231 cells assessed as increase in GCLM protein level at 0.5 uM incubated for 16 hrs by immunoblot analysis; type: cell-based
RAW264.7 [11] = experiment: Inhibition of LPS-induced iNOS protein expression in mouse RAW264.7 cells at 0.5 to 4 uM preincubated for 1 hr followed by LPS-stimulation and measured after 16 hrs by immunoblot analysis; type: functional, cell-based
Mus musculus [12] = experiment: Antiinflammatory activity in C57BL/6 mouse model of CS-induced pulmonary injury assessed as reduction in TNFapha protein expression in lungs at 2 to 4 mg/kg, ip for 5 days by ELISA; type: functional, organism-based
RAW264.7 [13] = experiment: Cytotoxicity against mouse RAW264.7 cells assessed as reduction in cell viability < 6.25 uM after 24 hrs by MTT assay; type: cell-based; conditions: raw264.7, 24 h
[14] = molecular target: T1, Nuclear factor erythroid 2-related factor 2 (Homo sapiens); experiment: Activation of Nrf2 in human BEAS2B cells assessed as increase in Nrf2 protein expression at 5 uM incubated for 24 hrs by immunoblot analysis; type: cell-based
BEAS-2B [15] = experiment: Antioxidant activity in human BEAS2B cells assessed as increase in GSH level at 2 uM incubated for 1 to 12 hrs; type: functional, cell-based
Mus musculus [16] = experiment: Antioxidant Activity in C57BL/6 mouse model of CS-induced pulmonary injury assessed as decrease in MDA level in serum at 2 to 4 mg/kg, ip for 5 days; type: functional, organism-based
RAW264.7 [17] = experiment: Inhibition of LPS-induced IL-1beta protein expression in mouse RAW264.7 cells at 0.5 to 4 uM preincubated for 1 hr followed by LPS-stimulation and measured after 16 hrs by immunoblot analysis; type: functional, cell-based
RAW264.7 [18] = experiment: Inhibition of LPS-induced MMP-9 mRNA expression in mouse RAW264.7 cells at 0.5 to 4 uM preincubated for 1 hr followed by LPS-stimulation and measured after 6 hrs by qRT-PCR analysis; type: functional, cell-based
BEAS-2B [19] = experiment: Antioxidant activity in human BEAS2B cells assessed as increase in GSH level incubated for 24 hrs; type: functional, cell-based
[20] = molecular target: T1, Nuclear factor erythroid 2-related factor 2 (Homo sapiens); experiment: Activation of Nrf2 in human BEAS2B cells at 0.25 to 2 uM incubated for 12 hrs by immunoblot analysis relative to SF; type: cell-based
RAW264.7 [21] = experiment: Inhibition of LPS-induced TNFalpha protein expression in mouse RAW264.7 cells at 0.5 to 4 uM preincubated for 1 hr followed by LPS-stimulation and measured after 16 hrs by immunoblot analysis; type: functional, cell-based
RAW264.7 [22] = experiment: Inhibition of LPS-induced IL-6 mRNA expression in mouse RAW264.7 cells at 0.5 to 4 uM preincubated for 1 hr followed by LPS-stimulation and measured after 6 hrs by qRT-PCR analysis; type: functional, cell-based
RAW264.7 [23] = experiment: Inhibition of LPS-induced TNFalpha mRNA expression in mouse RAW264.7 cells at 0.5 to 4 uM preincubated for 1 hr followed by LPS-stimulation and measured after 6 hrs by qRT-PCR analysis; type: functional, cell-based
[24] = molecular target: T1, Nuclear factor erythroid 2-related factor 2 (Homo sapiens); experiment: Activation of Nrf2 in human BEAS2B cells assessed as increase in luciferase activity at 0.25 to 2 uM incubated for 18 hrs by dual luciferase reporter gene assay; type: cell-based
[25] = molecular target: T1, Nuclear factor erythroid 2-related factor 2 (Homo sapiens); experiment: Activation of Nrf2 in human BEAS2B cells assessed as increase in Nrf2 translocation in nucleus at 1 uM incubated for 6 hrs by DAPI staining based fluorescence microscopic analysis; type: cell-based
Mus musculus [26] = experiment: Antiinflammatory activity in C57BL/6 mouse model of CS-induced pulmonary injury assessed as reduction in hyperplasia of pneumo-cytes in lungs at 2 to 4 mg/kg, ip for 5 days by hematoxylin and eosin staining based fluorescence microscopic analysis; type: functional, organism-based

Structure (SMILES): CC1=C(C)C(=O)O[C@H]([C@](C)(O)[C@]2(O)CC[C@@]3(O)[C@@H]4C[C@H]5O[C@]56[C@@H](O)C=CC(=O)[C@]6(C)[C@H]4CC[C@]23C)C1
- Activity [1]: Active
- Activity (Mus musculus [2]): Active
- Activity (Mus musculus [3]): Active
- Activity [4]: Active
- inhibition (RAW264.7 [5]): Active
- Activity (Mus musculus [6]): Active
- Activity (Mus musculus [7]): Active
- inhibition (RAW264.7 [8]): Dose-dependent effect
- T1/2 [9]: 34.3 min
- Activity [10]: Active
- inhibition (RAW264.7 [11]): Active
- Activity (Mus musculus [12]): Active
- Activity (RAW264.7 [13]): Non-Toxic
- Activity [14]: Active
- Activity (BEAS-2B [15]): Active
- Activity (Mus musculus [16]): Active
- inhibition (RAW264.7 [17]): Active
- inhibition (RAW264.7 [18]): Active
- Activity (BEAS-2B [19]): Active
- fold change (FC) [20]: 2
- inhibition (RAW264.7 [21]): Active
- inhibition (RAW264.7 [22]): Active
- inhibition (RAW264.7 [23]): Active
- Activity [24]: Active
- Activity [25]: Active
- Activity (Mus musculus [26]): Active
